Data set [1] is described as follows: Antiproliferative activity against human MM1.S cells assessed as cell viability incubated for 72 hrs by CellTiter-Glo assay. Format: toxicity, cell-based. For orientation: In ATP-based viability assays light output follows the ATP content of the culture.
Data set [2] addresses Histone deacetylase 3/Nuclear receptor corepressor 2 (HDAC3/NCoR2) (Homo sapiens, UniProt O15379). The data set can be described thus: Inhibition of C-terminal His tagged human recombinant HDAC3 (1 to 428 end residues)/N-terminal GST-tagged human NcoR2 expressed in Sf9 insect cells using Z-Lys(Ac)-AMC as substrate preincubated for 60 mins followed by substrate addition and measured after 90 mins by fluorescence based microplate reader analysis.

A short description of data set [3]: Antiproliferative activity against human MM1.S cells assessed as cell viability at 50 uM incubated for 72 hrs by CellTiter-Glo assay relative to control. Format: toxicity, cell-based. The note with it: read-out: Activity.
In data set [4] the test system is MM1.S. The data set is described as follows: Induction of degradation of HDAC6 in human MM1.S cells at 0.5 uM incubated for 24 hrs by immunoblot analysis relative to control. The format is cell-based.

Histone deacetylase 3/Nuclear receptor corepressor 2 (HDAC3/NCoR2), sequence (O15379 whole entry): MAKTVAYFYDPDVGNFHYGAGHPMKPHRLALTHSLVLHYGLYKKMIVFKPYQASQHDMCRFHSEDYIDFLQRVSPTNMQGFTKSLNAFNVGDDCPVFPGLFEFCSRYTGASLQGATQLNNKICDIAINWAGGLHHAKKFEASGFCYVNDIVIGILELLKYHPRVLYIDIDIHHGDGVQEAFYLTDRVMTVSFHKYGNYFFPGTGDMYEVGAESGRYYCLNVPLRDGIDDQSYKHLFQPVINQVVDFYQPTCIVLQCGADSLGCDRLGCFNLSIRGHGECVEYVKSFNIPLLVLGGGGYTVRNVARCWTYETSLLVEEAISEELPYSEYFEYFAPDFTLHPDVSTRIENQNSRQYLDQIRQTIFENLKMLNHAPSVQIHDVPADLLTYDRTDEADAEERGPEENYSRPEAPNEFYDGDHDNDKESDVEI
Histone deacetylase 3/Nuclear receptor corepressor 2 (HDAC3/NCoR2), sequence (Q9Y618 whole entry, further chain): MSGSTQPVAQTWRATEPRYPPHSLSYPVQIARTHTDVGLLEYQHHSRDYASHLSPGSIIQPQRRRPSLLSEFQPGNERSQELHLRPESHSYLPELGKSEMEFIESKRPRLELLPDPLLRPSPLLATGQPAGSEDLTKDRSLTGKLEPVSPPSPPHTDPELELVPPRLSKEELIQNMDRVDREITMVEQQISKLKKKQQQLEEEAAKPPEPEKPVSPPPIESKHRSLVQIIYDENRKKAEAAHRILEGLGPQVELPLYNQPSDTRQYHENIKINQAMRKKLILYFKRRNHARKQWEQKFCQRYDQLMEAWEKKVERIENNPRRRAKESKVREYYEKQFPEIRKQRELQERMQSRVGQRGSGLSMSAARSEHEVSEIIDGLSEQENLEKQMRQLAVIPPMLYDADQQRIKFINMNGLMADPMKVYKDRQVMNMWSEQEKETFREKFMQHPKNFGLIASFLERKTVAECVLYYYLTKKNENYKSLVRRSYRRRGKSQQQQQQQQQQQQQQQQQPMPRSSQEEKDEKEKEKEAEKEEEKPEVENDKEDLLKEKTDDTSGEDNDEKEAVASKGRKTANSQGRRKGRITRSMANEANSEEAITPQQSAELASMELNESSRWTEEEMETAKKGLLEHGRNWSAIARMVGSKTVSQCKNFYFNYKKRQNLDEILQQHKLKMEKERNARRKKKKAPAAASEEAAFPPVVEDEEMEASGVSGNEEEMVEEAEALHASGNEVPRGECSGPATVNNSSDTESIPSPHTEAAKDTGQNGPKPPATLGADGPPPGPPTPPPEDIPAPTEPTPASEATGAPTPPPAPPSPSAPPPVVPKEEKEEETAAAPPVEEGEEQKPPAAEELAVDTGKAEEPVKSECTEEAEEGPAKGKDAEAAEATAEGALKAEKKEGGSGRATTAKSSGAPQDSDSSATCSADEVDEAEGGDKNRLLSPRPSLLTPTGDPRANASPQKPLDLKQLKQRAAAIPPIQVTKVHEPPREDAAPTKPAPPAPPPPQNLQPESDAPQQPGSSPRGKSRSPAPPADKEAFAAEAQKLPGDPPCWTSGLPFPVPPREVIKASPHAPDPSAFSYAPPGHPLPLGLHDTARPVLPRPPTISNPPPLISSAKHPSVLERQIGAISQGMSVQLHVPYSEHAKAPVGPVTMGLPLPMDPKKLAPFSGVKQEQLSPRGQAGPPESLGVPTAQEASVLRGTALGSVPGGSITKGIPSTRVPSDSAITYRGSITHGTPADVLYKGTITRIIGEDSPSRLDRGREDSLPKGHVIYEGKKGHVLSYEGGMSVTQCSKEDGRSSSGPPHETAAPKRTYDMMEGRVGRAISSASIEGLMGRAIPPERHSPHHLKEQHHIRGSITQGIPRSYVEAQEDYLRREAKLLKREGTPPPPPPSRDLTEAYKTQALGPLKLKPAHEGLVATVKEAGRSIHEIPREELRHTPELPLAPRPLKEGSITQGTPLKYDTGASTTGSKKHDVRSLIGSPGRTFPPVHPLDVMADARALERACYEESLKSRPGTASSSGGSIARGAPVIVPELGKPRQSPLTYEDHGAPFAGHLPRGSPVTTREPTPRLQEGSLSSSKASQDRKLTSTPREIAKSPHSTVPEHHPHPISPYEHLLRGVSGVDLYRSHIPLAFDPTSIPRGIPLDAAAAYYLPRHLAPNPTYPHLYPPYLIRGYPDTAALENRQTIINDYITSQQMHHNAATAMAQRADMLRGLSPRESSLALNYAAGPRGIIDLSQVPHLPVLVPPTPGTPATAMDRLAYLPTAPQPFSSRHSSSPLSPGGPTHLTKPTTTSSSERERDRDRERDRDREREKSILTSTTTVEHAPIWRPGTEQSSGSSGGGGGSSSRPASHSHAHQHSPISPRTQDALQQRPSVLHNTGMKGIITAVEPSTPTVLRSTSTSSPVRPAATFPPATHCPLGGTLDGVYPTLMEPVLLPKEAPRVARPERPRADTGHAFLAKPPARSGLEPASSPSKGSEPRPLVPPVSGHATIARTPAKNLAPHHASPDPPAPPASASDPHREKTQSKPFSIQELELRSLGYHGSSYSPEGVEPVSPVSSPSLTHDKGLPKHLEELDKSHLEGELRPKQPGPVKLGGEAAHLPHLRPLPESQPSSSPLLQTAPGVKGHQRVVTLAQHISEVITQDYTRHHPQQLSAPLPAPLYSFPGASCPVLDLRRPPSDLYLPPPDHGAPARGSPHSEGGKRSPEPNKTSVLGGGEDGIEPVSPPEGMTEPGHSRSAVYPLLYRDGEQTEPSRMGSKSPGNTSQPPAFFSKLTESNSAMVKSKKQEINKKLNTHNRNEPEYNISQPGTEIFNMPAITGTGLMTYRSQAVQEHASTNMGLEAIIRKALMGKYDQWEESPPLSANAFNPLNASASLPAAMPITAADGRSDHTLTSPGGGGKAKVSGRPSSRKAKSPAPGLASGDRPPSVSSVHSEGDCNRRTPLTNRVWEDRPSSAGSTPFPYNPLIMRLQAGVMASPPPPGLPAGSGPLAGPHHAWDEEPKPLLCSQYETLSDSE

Regarding `O=C(CCCCCCC(=O)Nc1ccccc1)NO` [VORINOSTAT], the 50% inhibitory concentration (IC50) (usually the concentration that inhibits the measured activity by half) at 72 h in data set [1] was found to be 800 nM.
As to `CCNNC(=O)c1ccc(CNC(=O)c2ccc(OCc3cn(CCCCCCNc4cc5c(cc4F)C(=O)N(C4CCC(=O)NC4=O)C5=O)nn3)cc2)cc1` (configuration not stated), the IC50 in data set [2] came to 611 nM. Moreover, the viability at 72 h, 50 µM in data set [3] was above 50%.
On to `CCNNC(=O)c1ccc(CNC(=O)c2ccc(NC(=O)CCCCCCC(=O)N[C@H](C(=O)N3C[C@H](O)C[C@H]3C(=O)NCc3ccc(-c4scnc4C)cc3)C(C)(C)C)cc2)cc1`, for which the 50% inhibitory concentration (IC50) in data set [2] was 126 nM. In addition, the viability at 72 h, 50 µM in data set [3] was above 50%.
On to `CCNNC(=O)c1ccc(CNC(=O)c2ccc(OCc3cn(CCCCCC(=O)N[C@H](C(=O)N4C[C@H](O)C[C@H]4C(=O)NCc4ccc(-c5scnc5C)cc4)C(C)(C)C)nn3)cc2)cc1`, for which the IC50 in data set [2] came to 417 nM. Further, the viability at 72 h, 50 µM in data set [3] was above 50%.
With `CCNNC(=O)c1ccc(CNC(=O)c2ccc(NC(=O)CCCCCCCNc3cc4c(cc3F)C(=O)N(C3CCC(=O)NC3=O)C4=O)cc2)cc1` (configuration not stated), in data set [2], the 50% inhibitory concentration (IC50) was 238 nM. For the same molecule, the IC50 at 72 h in data set [1] worked out at 18400 nM.
Take `CCNNC(=O)c1ccc(CNC(=O)c2ccc(OCc3cn(CCCCCCNc4cc5c(cc4F)C(=O)N(C4CCC(=O)N(C)C4=O)C5=O)nn3)cc2)cc1` (configuration not stated): the IC50 in data set [2] amounted to 537 nM. Besides, the viability at 72 h, 50 µM in data set [3] is above 50%.
Turning to `O=C(CCCCCCNC(=O)c1ccc(NC(=O)CCCCCCCNC(=O)COc2cccc3c2C(=O)N(C2CCC(=O)NC2=O)C3=O)cc1)NO` (configuration not stated), the half-maximal inhibitory concentration (IC50) in data set [2] was 164 nM. In addition, the viability at 72 h, 50 µM in data set [3] was above 50%. In addition, in data set [4], the Activity amounted to 94.5%.
As for `CCNNC(=O)c1ccc(CNC(=O)c2ccc(OCc3cn(CCOCCC(=O)N[C@H](C(=O)N4C[C@H](O)C[C@H]4C(=O)NCc4ccc(-c5scnc5C)cc4)C(C)(C)C)nn3)cc2)cc1`, in data set [2], the IC50 was found to be 244 nM. Further, the viability at 72 h, 50 µM in data set [3] is above 50%.
In the same order, the values of `CCNNC(=O)c1ccc(CNC(=O)c2ccc(NC(=O)COCCOCCNc3cc4c(cc3F)C(=O)N(C3CCC(=O)NC3=O)C4=O)cc2)cc1` (configuration not stated) are 378 nM and above 50%.
For `CCNNC(=O)c1ccc(CNC(=O)c2ccc(NC(=O)COCCOCC(=O)N[C@H](C(=O)N3C[C@H](O)C[C@H]3C(=O)NCc3ccc(-c4scnc4C)cc3)C(C)(C)C)cc2)cc1`, the IC50 in data set [2] was determined as 729 nM. Further, the viability at 72 h, 50 µM in data set [3] is above 50%.
Consider `CCNNC(=O)c1ccc(CNC(=O)c2ccc(OCc3cn(CCOCCNc4cc5c(cc4F)C(=O)N(C4CCC(=O)NC4=O)C5=O)nn3)cc2)cc1` (configuration not stated), for which, in data set [2], the half-inhibitory concentration (IC50) was determined as 332 nM. Moreover, the half-maximal inhibitory concentration (IC50) at 72 h in data set [1] turned out to be 24900 nM.
